Literature values in article PMC11372459 (Acta Pharmaceutica Sinica. B, 2024).

System: Gram-positive bacteria

Nisin (ITSISLCTPGCKTGALMGCNMKTATCHCSIHVSK; not fully specified; Lantibiotic nisin-A; UniProt P13068 24-57, looked up)
antibacterial spectrum: specific activity against Gram-positive bacteria
